This passage reports Ki results from patent US10807959B2, “WDR5-MLL1 inhibitors and modulators” (Vanderbilt University, priority 2018, dated 2020).

SMILES strings stand for the structures.

One assay addresses WDR5 (Homo sapiens (Human), UniProt P61964). The experiment in a line: Fluorescence polarization anisotropy (FPA) competition assay, displacement of FITC-MLL or 10mer-Thr-FAM peptide. It is filed as binding. Particulars: Inhibition of WDR5 by FPA assay. The text has this: The assay is run in 384-well format and is read on a BioTek Cytation. […] Replicate values are fit to a 4-parameter fit in XLFit to generate a single IC50 value for each compound that is then converted to a Ki value. Experiments are repeated to generate a 2nd, independent Ki value; values from the two experiments are averaged to produce the reported Ki value for the compound.
The Ki is the dissociation constant of the complex between target and ligand, obtained from inhibition or displacement. A higher Ki goes with a looser hold on the target. The compound `Cc1cc(-c2cc(Cn3ccnc3)cc(C(=O)NCc3ccc(Cl)c(Cl)c3)c2)ccn1` [Example 123, 3-((1H-Imidazol-1-yl)methyl)-N-(3,4-dichlorobenzyl)-5-(2-methylpyridin-4-yl)benzamide] came in with a Ki of 8.7 nM.

Consider `COc1cncc(-c2cc(Cn3ccnc3)cc(C(=O)NCc3ccc(Cl)c(Cl)c3)c2)c1` [Example 128, 3-((1H-Imidazol-1-yl)methyl)-N-(3,4-dichlorobenzyl)-5-(5-methoxypyridin-3-yl)benzamide], for which the inhibition constant (Ki) stood at 2.2 nM. This Ki is about 4-fold lower than that of the compound before. Turning to `COc1cc(CNC(=O)c2cc(Cn3ccnc3)cc(-c3ccoc3C)c2)cc(OC)c1` [Example 130, 3-((1H-Imidazol-1-yl)methyl)-N-(3,5-dimethoxybenzyl)-5-(2-methylfuran-3-yl)benzamide], the affinity corresponds to a Ki of 2.1 nM. Regarding `Cc1nc(F)ccc1-c1cc(Cn2ccnc2)cc(C(=O)NC(C)C2CCCCC2)c1` (centres unmarked) [Example 132, 3-((1H-Imidazol-1-yl)methyl)-N-(1-cyclohexylethyl)-5-(6-fluoro-2-methylpyridin-3-yl)benzamide], the Ki is 3.9 nM.

Turning to `O=C(NCc1ccc(Cl)c(Cl)c1)c1cc(Cn2ccnc2C(F)(F)F)cc(-c2ccc(F)cc2Cl)c1` [Example 135, 2′-Chloro-N-(3,4-dichlorobenzyl)-4′-fluoro-5-((2-(trifluoromethyl)-1H-imidazol-1-yl)methyl)-[1,1′-biphenyl]-3-carboxamide], the Ki is > 10000 nM. The same measure, in the same setting: the result for `O=C(NCc1ccc(Cl)c(Cl)c1)c1cc(Cn2ccnc2)cc(N2CCCC2)c1` [Example 136, 3-((1H-Imidazol-1-yl)methyl)-N-(3,4-dichlorobenzyl)-5-(pyrrolidin-1-yl)benzamide] reads 6.5 nM; that for `CC(C)(NC(=O)c1cc(Cn2ccnc2)cc(-c2ccc(F)cc2Cl)n1)C1CC1` [Example 149, 4-((1H-imidazol-1-yl)methyl)-6-(2-chloro-4-fluorophenyl)-N-(2-cyclopropylpropan-2-yl)picolinamide], 8.6 nM.

In turn, `CCC(NC(=O)c1cc(Cn2ccnc2)cc(-c2ccc(F)cc2Cl)n1)C1CC1` (centres unmarked) [Example 152, 4-((1H-Imidazol-1-yl)methyl)-6-(2-chloro-4-fluorophenyl)-N-(1-cyclopropylpropyl)picolinamide] showed an inhibition constant Ki of 13.1 nM. On the same count and under the same terms, the value for `Cc1cc(C)cc(CNC(=O)c2cc(Cn3ccnc3)cc(-c3ccc(F)cc3Cl)n2)c1` [Example 153, 4-((1H-Imidazol-1-yl)methyl)-6-(2-chloro-4-fluorophenyl)-N-(3,5-dimethylbenzyl)picolinamide] was 4.8 nM; that for `COc1cc(OC)cc(C(C)NC(=O)c2cc(Cn3ccnc3)cc(-c3ccc(F)cc3Cl)n2)c1` (centres unmarked) [Example 154, 4-((1H-Imidazol-1-yl)methyl)-6-(2-chloro-4-fluorophenyl)-N-(1-(3,5-dimethoxyphenyl)ethyl)picolinamide] was 5.1 nM.

The same assay, now with this note: Table B2, WDR5 WIN-site binding affinity; values not less than 1 nM (FPA).
For the compound `O=C(NCc1cc(Cl)cc(Cl)c1)c1cccc(CNC2=NCCN2)c1` [Example B1, N-(3,5-dichlorobenzyl)-3-(((4,5-dihydro-1H-imidazol-2-yl)amino)methyl)benzamide], the Ki worked out at 18 nM. Consider `CC(C)N(Cc1cccc(Cl)c1)C(=O)c1cccc(CNC2=NCCN2)c1` [Example B2], for which the affinity corresponds to a Ki of 400 nM.

For the compound `O=C(NCc1ccc(Cl)c(Cl)c1)c1cccc(CNC2=NCCN2)c1` [Example B3], the Ki came out at 209 nM. The compound `Cc1cc(CNC(=O)c2cccc(CNC3=NCCN3)c2)ccc1Cl` [Example B4] had an inhibition constant Ki of 11.9 nM.

On to `Cc1cc(C)cc(CNC(=O)c2ccc(F)c(CNC3=NCCN3)c2)c1` [Example B7], for which the Ki was 8.46 nM.

In turn, `O=C(NCc1ccc(Cl)c(Cl)c1)c1cc(Cl)cc(CNC2=NCCN2)c1` [Example B8] came in with a Ki of 10.7 nM. Consider `O=C(NCc1cc(Cl)cc(Cl)c1)c1cc(Cl)cc(CNC2=NCCN2)c1` [Example B9], for which the affinity, expressed as Ki, was 17.4 nM. Still for that read-out and setting: the result for `Cc1ccc(CNC(=O)c2cc(Cl)cc(CNC3=NCCN3)c2)cc1Cl` [Example B10] reads 54.5 nM; that for `Cc1cc(C)cc(CNC(=O)c2cc(Cl)cc(CNC3=NCCN3)c2)c1` [Example B11], 46 nM; that for `CC(NC(=O)c1cc(Cl)cc(CNC2=NCCN2)c1)c1cccc(Cl)c1` (centres unmarked) [Example B12], 65.1 nM. Turning to `O=C(NCc1cc(Cl)ccn1)c1ccc(F)c(CNC2=NCCN2)c1` [Example B16], the inhibition constant (Ki) was 9.05 nM. `O=C(NCc1cc(Cl)cc(Cl)c1)c1ccc(F)c(CNC2=NCCN2)c1` [Example B17] yielded an inhibitory constant (Ki) of 2.47 nM. Take `COc1cc(OC)cc(C(C)NC(=O)c2ccc(F)c(CNC3=NCCN3)c2)c1` (centres unmarked) [Example B18]: the Ki is 1.81 nM. On the same count and under the same terms, the value for `COc1ccc(CNC(=O)c2ccc(F)c(CNC3=NCCN3)c2)cc1OC` [Example B19] was 8.06 nM; that for `Cc1ccnc(C(NC(=O)c2ccc(F)c(CNC3=NCCN3)c2)C2CC2)c1` (centres unmarked) [Example B20] was 4.6 nM.

`COc1ccnc(CNC(=O)c2ccc(F)c(CNC3=NCCN3)c2)c1` [Example B22] came in with a Ki of 1.5 nM. Compound `O=C(NCc1ccc(Cl)cn1)c1ccc(F)c(CNC2=NCCN2)c1` [Example B23] registered an inhibition constant (Ki) of 30.3 nM. `COc1cc(CN(C)C(=O)c2ccc(F)c(CNC3=NCCN3)c2)cc(OC)c1` [Example B24] returned an inhibition constant (Ki) of 49.8 nM. The same measure, in the same setting: the result for `COc1cccc(CNC(=O)c2ccc(F)c(CNC3=NCCN3)c2)n1` [Example B25] reads 74.2 nM. For the compound `COc1ccc(C(=O)NCc2ccc(F)c(CNC3=NCCN3)c2)cc1Cl` [Example B26], the inhibitory constant (Ki) is 3.24 nM. Still for that read-out and setting: the value for `COc1cc(CNC(=O)c2ccc(OC)c(CNC3=NCCN3)c2)cc(OC)c1` [Example B27, 3-(((4,5-dihydro-1H-imidazol-2-yl)amino)methyl)-N-(3,5-dimethoxybenzyl)-4-methoxybenzamide] was 7.52 nM.

Turning to `Cc1ccnc(CNC(=O)c2ccc(F)c(CNC3=NCCN3)c2)c1` [Example B29], the inhibition constant (Ki) was determined as 24.9 nM. The compound `Cc1cc(C)cc(CNC(=O)c2cc(F)c(F)c(CNC3=NCCN3)c2)c1` [Example B31] yielded a Ki of 8.11 nM. The same measure, in the same setting: the result for `COc1ccc(CNC(=O)c2cc(F)c(F)c(CNC3=NCCN3)c2)cc1Cl` [Example B32] reads 4.51 nM; that for `COc1ccnc(CNC(=O)c2cc(F)c(F)c(CNC3=NCCN3)c2)c1` [Example B34], 12 nM; that for `COc1cc(OC)cc(C(C)NC(=O)c2cc(F)c(F)c(CNC3=NCCN3)c2)c1` (centres unmarked) [Example B35], 4.22 nM.

With `COc1cc(CNC(=O)c2cc(CNC3=NCCN3)ccc2F)cc(OC)c1` [Example B37], affinity was put at a Ki of 8.71 nM. Same read-out and setting: the result for `COc1cc(CNC(=O)c2ccc(OC)c(CNC3=NCCN3)c2)ccc1Cl` [Example B38] reads 24.5 nM; that for `COc1ccc(C(=O)NCc2cc(Cl)ccn2)cc1CNC1=NCCN1` [Example B39], 1.39 nM; that for `COc1ccnc(CNC(=O)c2ccc(OC)c(CNC3=NCCN3)c2)c1` [Example B40], 7.21 nM. On the same count and under the same terms, the result for `COc1ccc(C(=O)NCc2ccc(Cl)c(F)c2)cc1CNC1=NCCN1` [Example B41] reads 1.76 nM; that for `COc1ccc(C(=O)NCc2ccc(Cl)c(C)c2)cc1CNC1=NCCN1` [Example B42], 1.51 nM; that for `COc1cc(OC)cc(C(C)NC(=O)c2ccc(OC)c(CNC3=NCCN3)c2)c1` (centres unmarked) [Example B43], 1.82 nM. Still for that read-out and setting: the result for `COc1ccc(C(=O)NCc2ccc(Cl)cn2)cc1CNC1=NCCN1` [Example B44] reads 20.3 nM.
